Experimental data: US20200331950A1, “SGLTS INHIBITOR AND APPLICATION THEREOF” (SHANDONG DANHONG PHARMACEUTICAL CO., LTD., priority 2018, published 2020)
Marks after values point to notes of the source that are not given here.

Experiments:
SD rats [1] = test: Oral glucose tolerance test (OGTT) in rats, second time; assay type: in vivo; details: second study, male SD rats, 10 mg/kg single intragastric administration
Method: Study on the In Vivo Efficacy of Oral Glucose Tolerance Test (OGTT) in Rats for the Second Time:
(§1) The experimental animals were allowed to adapt to the environment in the animal room for one week after they arrived.
(§2) The animals fasted in the metabolic cage for 18 hours, then were given drugs or vehicle (2 ml/kg) according to the above table, and subsequently were immediately given 50% glucose solution (2 g/kg, 4 ml/kg).
(§3) 2 hours after the administration of glucose solution, feed intake was restored. Blood samples were taken at 0 min, 15 min, 30 min, 45 min, 60 min and 120 min respectively, and urine samples were collected at 0-24 h to test blood glucose, urine glucose (mg/200 g) and urine volume respectively.
(§4) All values are represented as averages. Statistical analysis was performed using Graphpad Prism 6 one-way analysis of variance and Tukey's multiple comparison test. P value of less than 0.05 is considered statistically significant.

[2] = In vivo pharmacokinetics in rats; details: male SD rats
Source text: Study on the In Vivo Pharmacokinetics in Rats
The purpose of the experiment: Male SD rats were used as test animals and were given a single administration to determine the plasma concentration of the compound and evaluate the pharmacokinetic behavior.
Experimental method: Six healthy adult male SD rats were divided into 2 groups, with 3 rats in an intravenous injection group and 3 rats in an oral administration group. In the intravenous injection group, the test compound was mixed with an appropriate amount of vehicle (10% N-methyl pyrrolidone (NMP)/10% polyethylene glycol-15 hydroxystearate (available from solutol)/80% water), then vortexed and sonicated to prepare 0.2 mg/mL clear solution, which was filtered by microporous membrane. In the oral administration group, 10% N-methyl pyrrolidone (NMP)/10% polyethylene glycol-15 hydroxy stearate (available from solutol)/80% water was used as a vehicle and mixed with the test compound, then vortexed and sonicated to prepare 0.40 mg/mL clear solution. The rats were given intravenous administration at a dose of 1 mg/kg or oral administration at a dose of 2 mg/kg. Whole blood was collected at a certain period of time to prepare the plasma. The drug concentration of the plasma was analyzed by LC-MS/MS method, and the pharmacokinetic parameters were calculated using Phoenix WinNonlin software (Pharsight Company, USA).

Human-SGLT2 = biological target: T1, Human-SGLT2 (Homo sapiens, UniProt P31639); test: SGLT2 glucose transport test ([14C]-labeled methyl a-D-glucopyranoside uptake); assay type: cell-based; details: cells stably expressing Human-SGLT2; 37° C., 2 hours
T1 sequence (P31639 1-672): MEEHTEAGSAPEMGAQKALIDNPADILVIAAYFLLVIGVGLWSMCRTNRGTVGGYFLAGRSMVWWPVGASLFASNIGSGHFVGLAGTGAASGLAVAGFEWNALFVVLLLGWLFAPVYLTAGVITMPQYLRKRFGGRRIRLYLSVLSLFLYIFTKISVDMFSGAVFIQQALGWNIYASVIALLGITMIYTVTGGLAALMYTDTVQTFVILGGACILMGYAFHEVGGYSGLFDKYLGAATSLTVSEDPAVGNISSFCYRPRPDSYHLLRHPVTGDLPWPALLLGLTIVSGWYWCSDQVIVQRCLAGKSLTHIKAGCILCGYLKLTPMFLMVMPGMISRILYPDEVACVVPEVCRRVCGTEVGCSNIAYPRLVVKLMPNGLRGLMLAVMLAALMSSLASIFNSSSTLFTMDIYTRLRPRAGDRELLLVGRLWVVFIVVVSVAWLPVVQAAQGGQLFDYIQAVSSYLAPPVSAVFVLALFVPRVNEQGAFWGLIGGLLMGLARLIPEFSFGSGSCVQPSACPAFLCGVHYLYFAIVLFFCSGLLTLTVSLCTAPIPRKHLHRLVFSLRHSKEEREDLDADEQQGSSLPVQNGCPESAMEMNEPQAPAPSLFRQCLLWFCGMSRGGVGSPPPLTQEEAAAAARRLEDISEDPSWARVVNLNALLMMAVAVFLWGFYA
Method: Biological Activity Experiment 2: SGLT2 Glucose Transport Test.
(§5) 1. Purpose of the Experiment:
The effect of the compound on the glucose transport activity of SGLT2 transporter was detected by measuring the amount of [^14C]-labeled glucose entering cells with high expression of Human-SGLT2.
The cells stably expressing Human-SGLT2 were constructed by Wuxi AppTec(Shanghai) Co., Ltd. SGLT2 cells were laid in 96-well cell culture plate (Greiner) and cultured overnight in 5% CO2 environment at 37° C.
2.2. SGLT2 Glucose Transport Test.
(§6) 1) Experimental buffer, including: 10 mM 4-hydroxyethylpiperazineethanesulfonic acid (HEPES), 1.2 mM magnesium chloride (MgCl2), 4.7 mM potassium chloride (KCl), 2.2 mM calcium chloride (CaCl2) and 120 mM sodium chloride (NaCl).
2) Stop buffer, including: 10 mM 4-hydroxyethylpiperazineethanesulfonic acid (HEPES), 1.2 mM magnesium chloride (MgCl2), 4.7 mM potassium chloride (KCl), 2.2 mM calcium chloride (CaCl2), 120 mM sodium chloride (NaCl) and 1 μM LX4211.
3) Compounds were serially diluted in 100% dimethyl sulfoxide (DMSO) starting at 10 uM and make a 5-folds, 8 points serials compound dilutions.
4) 6 μM [^14C]-labeled methyl a-D-lucopyranosid was prepared with the experimental buffer.
5) The cells were treated with 49 uL of the experimental buffer, 1 μL of the gradient diluted compound and 50 μL of the 6 μM [^14C]-labeled methyl a-D-lucopyranosid solution at 37° C. for 2 hours.
6) The solution was sucked out from holes, and the cells were rinsed with the stop buffer for 3 times.
7) The cells were lysed with 50 ul of 10% sodium hydroxide solution, the cell lysate was sucked into a scintillation tube, into which 2 mL scintillation solution was then added.
8) The data were read with an isotope detector Tricarb.
9) The IC50 value of the tested compound was obtained by the calculation formula: log(inhibitor) vs. response—Variable slope, using GraphPad Prism 5.0 software.

SD rats [3] = test: Oral glucose tolerance test (OGTT) in rats, first time; assay type: in vivo; details: first study, male SD rats, 10 mg/kg single intragastric administration
Method: Experimental Example 3. Study on In Vivo Efficacy of Oral Glucose Tolerance Test (OGTT) in Rats: Study on the In Vivo Efficacy of Oral Glucose Tolerance Test (OGTT) in Rats for the First Time
as §1, §2, §3, §4

Human-SGLT1 = biological target: T2, Human-SGLT1 (Homo sapiens, UniProt P13866); test: SGLT1 glucose transport test ([14C]-labeled methyl a-D-glucopyranoside uptake); assay type: cell-based; details: cells stably expressing Human-SGLT1; 37° C., 2 hours
T2 sequence (P13866 1-664): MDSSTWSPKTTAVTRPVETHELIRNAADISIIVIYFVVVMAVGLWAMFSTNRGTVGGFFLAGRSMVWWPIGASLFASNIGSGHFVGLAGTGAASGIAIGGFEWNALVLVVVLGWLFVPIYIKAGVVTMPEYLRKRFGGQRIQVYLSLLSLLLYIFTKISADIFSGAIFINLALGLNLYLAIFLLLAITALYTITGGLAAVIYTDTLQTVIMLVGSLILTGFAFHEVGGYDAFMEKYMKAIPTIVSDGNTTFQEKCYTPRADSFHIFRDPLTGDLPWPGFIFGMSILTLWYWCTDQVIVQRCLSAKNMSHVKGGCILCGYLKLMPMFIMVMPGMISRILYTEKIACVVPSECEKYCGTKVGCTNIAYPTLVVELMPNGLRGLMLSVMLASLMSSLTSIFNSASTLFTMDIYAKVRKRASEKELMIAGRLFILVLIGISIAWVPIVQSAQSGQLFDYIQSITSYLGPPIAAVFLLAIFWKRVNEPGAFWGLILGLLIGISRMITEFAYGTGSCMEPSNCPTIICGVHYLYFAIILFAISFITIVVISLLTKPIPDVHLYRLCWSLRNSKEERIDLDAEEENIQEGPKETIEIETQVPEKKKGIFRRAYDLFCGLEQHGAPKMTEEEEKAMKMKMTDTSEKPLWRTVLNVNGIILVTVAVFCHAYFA
Source text: Biological Activity Experiment 1: SGLT1 Glucose Transport Test.
as §5
The effect of the compound on the glucose transport activity of SGLT1 transporter was detected by measuring the amount of [′C]-labeled glucose entering cells with high expression of Human-SGLT1.
The cells stably expressing Human-SGLT1 were constructed by Wuxi AppTec(Shanghai) Co., Ltd. SGLT1 cells were laid in Cytostar-T (PerkinElmer) 96-well cell culture plate and cultured overnight in 5% CO2 environment at 37° C.
2.2. SGLT1 Glucose Transport Test.
as §6
2) Compounds were serially diluted in 100% dimethyl sulfoxide (DMSO) starting at 1 mM and make a 5-folds, 8 points serials compound dilutions.
3) 3 μM [′^4C]-labeled methyl a-D-glucopyranoside was prepared with the experimental buffer.
4) The cells were treated with 49 uL of the experimental buffer, 1 μL of the gradient diluted compound and 50 μL of the 3 μM [^14C]-labeled methyl a-D-lucopyranosid solution at 37° C. for 2 hours.
5) The data were read with an isotope detector Micro beta Reader.
6) The IC50 value of the tested compound was obtained by the calculation formula: log(inhibitor) vs. response—Variable slope, using GraphPad Prism 5.0 software.

SMILES	IC50 (Human-SGLT2) [nM]	IC50 (Human-SGLT1) [nM]	also measured
CCOc1ccc(Cc2cc([C@@H]3O[C@H](SC)[C@@H](O)[C@H](O)[C@H]3O)ccc2Cl)cc1 [Sotagliflozin, reference compound]	1.15	–	OGTT blood glucose level AUC0-2 hr (SD rats [1]; glucose 2 g/kg): 790 mmol/L/min; Urine glucose level (SD rats [1]; urine 0-24 h): 2843.2**** mg/200 g, BW; Urine volume (SD rats [1]; urine 0-24 h): 26.4**** mL/200 g, BW; Oral DNAUC (AUCPO/Dose) ([2]; oral 2 mg/kg): 969 nM · h/mpk; clearance ([2]; rat, plasma, intravenous 1 mg/kg or oral 2 mg/kg, read-out: Cl (clearance rate)): 22.6 mL/min/kg; half-life ([2]; rat, plasma, intravenous 1 mg/kg or oral 2 mg/kg, read-out: T1/2 (half-life) (converted)): 1.27 h; Vd ([2]; rat, plasma, intravenous 1 mg/kg or oral 2 mg/kg, read-out: Vdss (distribution volume)): 2.01 L/kg; bioavailability ([2]; rat, plasma, intravenous 1 mg/kg, oral 2 mg/kg, read-out: F % (oral bioavailability)): 54.8%; Cmax ([2]; rat, single administration, intravenous 1 mg/kg or oral 2 mg/kg, plasma): 364 nM; OGTT blood glucose level AUC0-2 hr (SD rats [3]; glucose 2 g/kg): 823 mmol/L/min; Urine glucose level (SD rats [3]; urine 0-24 h): 2424.0**** mg/200 g, BW; Urine volume (SD rats [3]; urine 0-24 h): 39.74**** mL/200 gBW
CS[C@H]1O[C@@H](c2ccc(C)c(Cc3ccc(C4=CCC5(CC4)OCCO5)cc3)c2)[C@H](O)[C@@H](O)[C@@H]1O [WXD002]	1.01	55.6	–
CS[C@H]1OC(c2ccc(C)c(Cc3ccc(C4=CCOCC4)cc3)c2)[C@H](O)[C@@H](O)[C@@H]1O (stereo partly drawn) [WXD004]	1.49	14.1	–
CS[C@H]1OC(c2ccc(C)c(Cc3ccc(C4=CCCCC4)cc3)c2)[C@H](O)[C@@H](O)[C@@H]1O (stereo partly drawn) [WXD005]	1.78	21.9	–
CS[C@H]1O[C@@H](c2ccc(C)c(Cc3ccc(C4=CCC(F)(F)CC4)s3)c2)[C@H](O)[C@@H](O)[C@@H]1O [WXD006]	1.02	39.2	–
CS[C@H]1O[C@@H](c2ccc(C)c(Cc3ccc(C4=CCOCC4)s3)c2)[C@H](O)[C@@H](O)[C@@H]1O [WXD007]	1.35	30.1	–
COc1ccc(C2O[C@H](SC)[C@@H](O)[C@H](O)[C@H]2O)cc1Cc1ccc(C2=CCC(F)(F)CC2)cc1 (stereo partly drawn) [WXD008]	5.4	17.2	–
CS[C@H]1OC(c2ccc(F)c(Cc3ccc(C4=CCC(F)(F)CC4)cc3)c2)[C@H](O)[C@@H](O)[C@@H]1O (stereo partly drawn) [WXD009]	4.68	233	–
